Assay results reported in the supplement of paper PMC10331698.
± gives the standard deviation of the averaged measurements.

How the values were obtained:
Experiment in all cases: level (log10 ratio to DMSO vehicle control); higher = higher biomarker level / cell amount than vehicle control
[1] = compound: OCCC(F)(F)C(F)(F)C(F)(F)C(F)(F)F [4:2 Fluorotelomer alcohol] (in DMSO)
Protocol: (§1)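 BioMAP Diversity Plus panel of 12 human primary cell co-culture systems (3C, 4H, LPS, SAg, BT, BF4T, BE3C, CASM3C, HDF3CGF, KF3CT, MyoF, Mphg). Compounds were added 1 h before stimulation and left for 24 h (MyoF 48 h; BT 72 h for soluble read-outs or 6 d for IgG). Biomarkers were read by ELISA, cytotoxicity by SRB, PBMC viability and proliferation by Alamar Blue. Each well value was divided by the mean of 8 DMSO control wells on the same plate and log10 transformed; duplicate blinded samples were tested at 4 concentrations.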

[2] = compound: O=S(=O)(O)C(F)(F)C(F)(F)C(F)(F)C(F)(F)C(F)(F)C(F)(F)C(F)(F)F [Perfluoroheptanesulfonic acid] (in DMSO)
Protocol: as §1

[3] = compound: O=C(O)C(F)(OC(F)(F)C(F)(OC(F)(F)C(F)(OC(F)(F)C(F)(F)C(F)(F)F)C(F)(F)F)C(F)(F)F)C(F)(F)F [Perfluoro-(2,5,8-trimethyl-3,6,9-trioxadodecanoic)acid] (in DMSO)
Protocol: as §1

[4] = compound: O=S(=O)(O)CCC(F)(F)C(F)(F)C(F)(F)C(F)(F)C(F)(F)C(F)(F)C(F)(F)C(F)(F)F [8:2 Fluorotelomer sulfonic acid] (in DMSO)
Protocol: as §1

Perfluorononanoic acid = compound: O=C(O)C(F)(F)C(F)(F)C(F)(F)C(F)(F)C(F)(F)C(F)(F)C(F)(F)C(F)(F)F [Perfluorononanoic acid] (in DMSO)
Protocol: as §1

[5] = compound: C=C(C)C(=O)OCCC(F)(F)C(F)(F)C(F)(F)C(F)(F)C(F)(F)C(F)(F)C(F)(F)C(F)(F)F [8:2 Fluorotelomer methacrylate] (in DMSO)
Protocol: as §1

Perfluoroundecanoic acid = compound: O=C(O)C(F)(F)C(F)(F)C(F)(F)C(F)(F)C(F)(F)C(F)(F)C(F)(F)C(F)(F)C(F)(F)C(F)(F)F [Perfluoroundecanoic acid] (in DMSO); conditions: 6700 nM
Protocol: as §1

| Test System | level (log10) ([1]; 6700 nM) | level (log10) ([1]; 20000 nM) | level (log10) ([1]; 60000 nM) | level (log10) ([2]; 1500 nM) | level (log10) ([2]; 4400 nM) | level (log10) ([2]; 13000 nM) | level (log10) ([2]; 40000 nM) | level (log10) ([3]; 1100 nM) | level (log10) ([3]; 3300 nM) | level (log10) ([3]; 10000 nM) | level (log10) ([4]; 6700 nM) | level (log10) ([4]; 20000 nM) | level (log10) ([4]; 60000 nM) | level (log10) (Perfluorononanoic acid; 6700 nM) | level (log10) (Perfluorononanoic acid; 20000 nM) | level (log10) ([5]; 6700 nM) | level (log10) ([5]; 20000 nM) | level (log10) (Perfluoroundecanoic acid) |
| --- | --- | --- | --- | --- | --- | --- | --- | --- | --- | --- | --- | --- | --- | --- | --- | --- | --- | --- |
| CASM3C:CD106/VCAM-1 | 0.0435 ± 0.023 | -0.0035 ± 0.023 | -0.0005 ± 0.042 | 0.0085 ± 0.057 | 0.0125 ± 0.0035 | 0.0055 ± 0.05 | -0.0355 ± 0.0035 | 0.0125 ± 0.012 | -0.003 ± 0.031 | -0.0025 ± 0.005 | 0.0015 ± 0.029 | -0.0425 ± 0.025 | -0.071 ± 0.033 | 0.013 ± 0.0042 | -0.0245 ± 0.1 | -0.006 ± 0.0014 | -0.0145 ± 0.036 | -0.032 ± 0.034 |
| CASM3C:CD141/Thrombomodulin | -0.018 ± 0.075 | 0.0295 ± 0.035 | 0.0295 ± 0.043 | 0.019 ± 0.037 | -0.019 ± 0.028 | -0.0185 ± 0.022 | 0.038 ± 0.078 | 0.0045 ± 0.036 | 0.018 ± 0.047 | 0.014 ± 0.027 | -0.0045 ± 0.029 | -0.026 ± 0.04 | -0.0265 ± 0.0035 | 0.0145 ± 0.0092 | 0.0335 ± 0.016 | -0.0195 ± 0.042 | 0.041 ± 0.082 | -0.06 ± 0.12 |
| CASM3C:CD142/Tissue Factor | -0.014 ± 0.079 | -0.028 ± 0.0014 | 0.0225 ± 0.046 | -0.0305 ± 0.035 | -0.0125 ± 0.019 | -0.026 ± 0.024 | -0.04 ± 0.068 | 0.0095 ± 0.018 | 0.0085 ± 0.011 | 0.0025 ± 0.015 | -0.045 ± 0.0042 | -0.067 ± 0.027 | -0.0195 ± 0.03 | -0.093 ± 0.064 | -0.115 ± 0.14 | -0.023 ± 0.018 | -0.0195 ± 0.057 | -0.066 ± 0.041 |
| CASM3C:CXCL8/IL-8 | -0.002 ± 0.0028 | 0.0035 ± 0.026 | 0.019 ± 0.031 | 0.0015 ± 0.013 | -0.005 ± 0.0099 | -0.0105 ± 0.005 | -0.0005 ± 0.019 | -0.0025 ± 0.021 | -0.015 ± 0.025 | 0.0105 ± 0.0035 | 0.019 ± 0.018 | -0.0065 ± 0.012 | 0.0035 ± 0.013 | 0.0075 ± 0.013 | 0.031 ± 0.033 | -0.011 ± 0.0057 | -0.0055 ± 0.028 | 0.0005 ± 0.0021 |
| CASM3C:CXCL9/MIG | 0.008 ± 0.0014 | 0.0085 ± 0.029 | 0.0245 ± 0.056 | 0.012 ± 0.035 | -0.008 ± 0.0099 | 0.0015 ± 0.005 | 0.037 ± 0.05 | 0.0055 ± 0.0021 | -0.0065 ± 0.0092 | 0.0075 ± 0.005 | -0.03 ± 0.02 | -0.032 ± 0.0071 | 0 ± 0.021 | 0.014 ± 0.028 | 0.005 ± 0.057 | -0.017 ± 0.011 | 0.018 ± 0.042 | -0.027 ± 0.0099 |
| CASM3C:HLA-DR | -0.0195 ± 0.049 | -0.022 ± 0.028 | 0.002 ± 0.037 | -0.011 ± 0.0028 | 0.009 ± 0.0085 | -0.0255 ± 0.028 | -0.009 ± 0.031 | 0.0045 ± 0.019 | -0.004 ± 0.0028 | 0.0165 ± 0.012 | 0.0155 ± 0.023 | -0.009 ± 0.024 | -0.015 ± 0.017 | -0.0105 ± 0.066 | -0.02 ± 0.0028 | -0.006 ± 0.027 | -0.0195 ± 0.046 | -0.007 ± 0.017 |
| CASM3C:IL-6 | -0.0195 ± 0.005 | -0.023 ± 0.0099 | -0.016 ± 0.054 | 0.021 ± 0.05 | -0.029 ± 0.0014 | -0.0305 ± 0.026 | 0.011 ± 0.088 | -0.016 ± 0.048 | -0.0155 ± 0.043 | -0.0125 ± 0.018 | 0.0025 ± 0.029 | -0.0075 ± 0.0064 | -0.0005 ± 0.018 | -0.016 ± 0.035 | -0.016 ± 0.024 | -0.0315 ± 0.022 | 0.0105 ± 0.084 | 0.0025 ± 0.0092 |
